In data set [1] the test system is OVX rats. Nature of the data set: Quantitative determination of lipid metabolism (total cholesterol, HDL, LDL) in rat serum. Format: in vivo, Sprague-Dawley female rats. The method, then:
(§1) Animals. Six month old, bilaterally ovariectomized (OVX) or sham operated Sprague-Dawley female rats (Harlan Laboratories, Indianapolis, Ind.) were maintained at the University of Louisville Research Resources Center at 22° C. with a 12-h light/dark cycle and ad libitum access to tap water and rodent chow (Purina Laboratory Rodent Diet 5001). All animal procedures were approved by the Institutional Animal Care and Use Committee, which is certified by the American Association for Accreditation of Laboratory Animal Care.
(§2) In vivo experiments were conducted in order to investigate the efficacy of compounds of the presently-disclosed subject matter. In all of the experiments, OVX and sham operated rats were randomly divided into groups of 5-7 animals. In all of the studies experimental groups included: i) Sham-operated control (euthanized six weeks post surgery as a pretreatment control), ii) OVX control (euthanized six weeks post surgery as a pretreatment control), iii) Sham control receiving vehicle, iv) OVX control receiving vehicle, v) OVX receiving 17-ethinyl estradiol (equimolar concentration with a selected test compound), vi) OVX receiving alendronate (1.6 mg/kg), and vii) OVX receiving parathyroid hormone 1-34 (PTH) ([…]). 17-ethinyl estradiol (17 EE) is a free estrogenic agent known to be orally active, and can serve as an example of an anti-catabolic agent. Alendronate (Alen) is a bisphosphonate that is currently used to treat osteoporosis (e.g., Fosamax®, Merck & Co., Inc,), and can serve as an example of an anti-catabolic agent. Parathyroid hormone 1-34 (PTH) is an agent that can serve as an example of an anabolic agent. All compounds and vehicle (1% DMSO in corn oil) were administered three times per week orally by gavage except for PTH which was administered via a subcutaneous injection in a volume of 0.5 ml/kg body mass thrice per week. Compound administration was initiated 6 weeks following surgery and lasted for 6 weeks (18 doses total).
(§3) Following 6 weeks of treatment, blood was obtained from each animal via cardiac puncture following an overnight fast and animals were subsequently euthanized via carbon dioxide asphyxiation. Blood was centrifuged immediately and the obtained serum samples were aliquoted and stored at −70° C. prior to analysis. Uteri were removed and fresh weights were obtained. Uterine masses were normalized to body mass at the end of the experiment. The left and right femora and left and right tibiae were subsequently collected from each animal, cleaned of soft tissue, and stored in saline at 4° C. prior to analysis.
Quantitative Determination of Lipid Metabolism (Total Cholesterol HDL, and LDL) in Rat Serum. Total cholesterol, high-density lipoprotein (HDL), and low-density lipoprotein (LDL) were quantitatively determined in the serum of rats in order to evaluate the extraosseous effects of estrogen treatment on lipid metabolism. Commercially available kits from Wako Diagnostics (Richmond, Va.) were used for the evaluations as recommended by the manufacturer.

For data set [2], the system named is OVX rats. Put plainly: Uterine mass and uterine mass to body weight ratio in OVX rats. Format: in vivo, Sprague-Dawley female rats. As to conditions: present-tense example, no data or figure. On the procedure: as §1, §2
(§4) Compounds of the presently-disclosed subject matter were orally administered to OVX rats at various doses. As indicated above all BTE's were administered three times per week for 6 weeks.
as §3
Uterine Mass and Body Weight. […] Uterine mass can be used to as a measure of estrogenic effect occurring in a tissue outside the bone in response to treatment with a test compound or composition. Generally, a lower uterine mass can be associated with a decreased risk of adverse side effects associated with the test compound or composition. A ratio of uterine mass to body weight can be used to correct for any increase in uterine size attributable to the relative size of the individual animal. Body weight and/or uterine mass also serve as an indirect measures of toxicity of a test compound.

For another data set, the system named is ICR Swiss mice. Put plainly: Stimulation of periosteal bone formation in a mouse calvarial injection model. Format: in vivo. As to conditions: present-tense example, no data or figure. The method, then:
Stimulation of Periosteal Bone Formation in a Mouse Calvarial Injection Model. The anabolic (bone formation) of compounds of the presently-disclosed subject matter are evaluated in the mouse calvarial injection model. Briefly, 4-week-old ICR Swiss mice are injected subcutaneously over the surface of the calvariae with compounds of the presently-disclosed subject matter at concentrations of 0, 1, 3, and 10 mg/kg/day for 5 days (twice a day). Microtubule inhibitor TN-16 (5 mg/kg/day for 2 days, twice a day) are used as a positive control. Mice are sacrificed two weeks after the injections are completed. Dissected calvarial samples are fixed in 10% phosphate-buffered formalin for 2 days, decalcified in 10% EDTA for 2 weeks and then embedded in paraffin. Histological sections are cut and stained with H&E and orange G. New woven bone formation (new bone area) is quantified by histomorphometry using the OsteoMeasure system (OsteoMetrics Inc., Atlanta, Ga.).

For data set [3], the system named is OVX rats. Nature of the data set: Femoral density via Archimedes' Principle (whole bone). Format: in vivo, Sprague-Dawley female rats. To be noted: for whole bone density and regional bone density: present-tense example, no data or figure. On the procedure: as §1, §2, §4, §3
Femoral Density via Archimedes' Principle. Right femora were submerged in distilled water and fully hydrated under a vacuum for 1 hr. Subsequently, the mass of each hydrated femur was obtained in air and when submerged in water. Densities were determined using Archimedes' Principle according to the following formula: density=[mass of hydrated femur/(mass of hydrated femur−mass of hydrated femur submerged in water)]×density of distilled water at a given temperature (See Keenan, et al. Comparison of bone density measurement techniques: DXA and Archimedes' principle. J Bone Miner Res 1997; 12:1903-7.). The obtained density measurements were associated with whole bone.

The subject of data set [4] is OVX rats. Put plainly: Volume fraction, ex vivo micro-computed tomography of tibia. Format: in vivo, Sprague-Dawley female rats. As to conditions: for volume fraction (BV/TV) of trabecular, cortical and whole bone tissue: present-tense example, no data or figure. The method, then: as §1, §2, §4, §3
Volume Fraction—Ex vivo micro-computed tomography (μCT). Volume fraction is a representative value for the amount of bone that occupies a given volume or space. High resolution image data were collected using a customized micro-CT system (ACTIS 150/225 system, BIR Inc., Lincolnshire, Ill.). The metaphysis of each right tibia was scanned over a three millimeter range and three-dimensional images were reconstructed. Data were subsequently processed to reveal the volume fraction (BV/TV) occupied by trabecular (cancellous) bone tissue, cortical bone tissue, and whole bone tissue. The resulting data provides information regarding the density of whole bone, cortical bone, and trabecular bone.

In data set [5] the test system is OVX rats. Nature of the data set: Bone mechanical competence indentation test. Format: in vivo, Sprague-Dawley female rats. As to conditions: for bone strength (indentation test): present-tense example, no data or figure. The method, then:
as §1, §2, §4, §3
Bone Mechanical Competence Indentation Test. After sacrifice, the left tibiae were trimmed to expose the cancellous bone of the proximal tibial metaphysis and an indentation test was performed by advancing a flat-tipped cylindrical post (1.5 mm diameter) axially into the cut surface to measure the compressive strength of the cancellous bone structure.

A short description of data set [6]: Hydroxyapatite (HA) Binding Assay. As to conditions: 10^−5 M analyte, 50 mM Tris-HCl pH 7.4, 1% DMSO; adjusted such that tetracycline = 100. On the procedure:
A Hydroxyapatite (HA) Binding Assay is used to determine whether compounds have an affinity for bone. Compounds of the presently-disclosed subject matter having a Bone Targeting Portion (RT) are studied using the HA Binding Assay. A 10^−3 M solution of each analyte was made in 100% dimethylsulfoxide (DMSO). A 100 fold dilution was then made to form a 10^−5 M solution in 50 mM Tris-HCl buffer, pH 7.4, 1% DMSO. Tetracycline was used as a reference analyte and approximately 50% was adsorbed to HA at the concentration of 10^−5 M. The HA slurry was 0.5 g/100 mL 50 mM Tris-HCl buffer, 1% DMSO.
For each analyte, two samples were prepared. For one sample, 1 mL of 10^−5 M analyte and 100 μL 50 mM Tris-HCl buffer, 1% DMSO was pipetted into a microcentrifuge tube. For the second sample, 1 mL of 10^−5 M analyte and 100 μL of the HA slurry was pipetted into a microcentrifuge tube. The samples were mixed gently by inversion for 4 minutes and then centrifuged at 12,000 g for 3 minutes to sediment the HA contained in those samples. The supernatant was transferred to another microcentrifuge tube.
An electronic spectral scan (ultraviolet-visible) from 220-520 nm was obtained for each analyte using a Varian Cary 300 Bio Scan. The blank was 50 mM Tris-HCl buffer, 1% DMSO. The wavelength of maximum absorbance (λmax) was determined, and the extinction coefficient (ε) was calculated using the Beer-Lambert Law.
The absorbance of the samples incubated with HA was measured at λmax, and the molar concentration of the analyte was then determined using the Beer-Lambert Law and the previously calculated extinction coefficient. The fraction adsorbed to HA for each sample was subsequently calculated.

In data set [7] the test system is OVX rats. Put plainly: Regional femoral density via Archimedes' Principle. It counts as in vivo, Sprague-Dawley female rats. As to conditions: oral 10, 100, or 1000 μg/kg, three times per week for 6 weeks. The method, then:
as §1, §2, §4
Following 6 weeks of treatment, blood was obtained from each animal via cardiac puncture following an overnight fast and animals were subsequently euthanized via carbon dioxide asphyxiation. […]
Regional Femoral Density via Archimedes' Principle. […] Briefly, each femur was measured with a Cen-Tech Digital Caliper and a cut was made from each end at 20% of the length of the femur plus half the width of the blade. Subsequently, the bone marrow was washed out of the femoral diaphysis and the Archimedes density for each of the three femoral regions was determined as described above.

Data set [8] has as its system OVX rats. Nature of the data set: RatLaps ELISA for C-telopeptide fragments of collagen type I (CTX-I) in serum. Format: in vivo, Sprague-Dawley female rats. As to conditions: Formula 125 at 1000 μg/kg, 17-ethinyl estradiol equimolar, alendronate 1.6 mg/kg.
Excerpt: RatLaps™ ELISA for C-Telopeptide Fragments of Collagen Type I (CTX-I). […] Bone resorption (CTX-I) was quantitatively assessed in rat serum using the commercially available RatLaps™ ELISA KIT from Nordic Bioscience Diagnostics A/S (Herlev, Denmark) as recommended by the manufacturer.
[9] abbreviates: present-tense example, no data or figure.
[10] abbreviates: OVX rats, oral 10, 100, or 1000 μg/kg.

Regarding `COc1ccc(NC(=O)COCCOCCNC(=O)CCCC(CO[N+](=O)[O-])O[N+](=O)[O-])c(O)c1C(N)=O` (stereo not drawn) [Formula 130], the “lipid metabolism (total cholesterol, HDL, LDL in serum)” value (“lipid metabolism” for short) in the data set on OVX rats [1] (setting [9]) is “limited or no effect”. Moreover, the uterine mass entry in the data set with OVX rats [2] is given as “limited or no effect”. For the same molecule, in the data set on ICR Swiss mice, the “new bone area (calvarial injection model)” value (shortened to “new bone area”) is recorded as “increase new bone area”. Moreover, the “whole bone density and regional bone density” value in the data set on OVX rats [3] was “increase bone density”. Also, the “volume fraction (BV/TV) of trabecular, cortical and whole bone tissue” value (from here on “volume fraction (BV/TV) of trabecular”) in the data set with OVX rats [4] is listed as “increase bone density”. For the same molecule, the “bone strength (indentation test)” value in the data set on OVX rats [5] is on record as “increase bone strength”. Further, in data set [6], the “Binding Index (binding to hydroxyapatite)” value (from here on “Binding Index”) was determined as 130.

As for `COc1ccc(NC(=O)COCCOCCNC(=O)COc2ccc(-c3coc4cc(O)cc(O)c4c3=O)cc2)c(O)c1C(N)=O` [Formula 128], the “lipid metabolism” value in the data set on OVX rats [1] (setting [9]) was “limited or no effect”. For the same molecule, the uterine mass entry in the data set with OVX rats [2] was “limited or no effect”. In addition, the “new bone area” value with ICR Swiss mice is reported as “increase new bone area”. In addition, the “whole bone density and regional bone density” value with OVX rats [3] is on record as “increase bone density”. In addition, the “volume fraction (BV/TV) of trabecular” value in the data set with OVX rats [4] was “increase bone density”. Further, the “bone strength (indentation test)” value with OVX rats [5] was “increase bone strength”.

In the case of `COc1ccc(NC(=O)COCCOCCOCCNC(=O)CCO[C@@H]2CCC3C4CCc5cc(O)ccc5C4CCC32C)c(O)c1C(N)=O` (stereo partly drawn) [Formula 124], in the data set with OVX rats [7], the “regional bone density (left femur)” value is “in the same ranges as those animals receiving 17-ethinyl estradiol (17 EE), Alendronate (Alen), or Parathyroid hormone 1-34 (PTH)”. Moreover, the “lipid metabolism” value in the data set on OVX rats [1] (rat, in vivo) was “limited or no effect”. For the same molecule, the “new bone area” value in the data set with ICR Swiss mice is “increase new bone area”. The “whole bone density (right femora)” value in the data set on OVX rats [3] (OVX rats, oral 10, 100, or 1000 μg/kg, three times per week for 6 weeks) was “in the same ranges as those animals receiving 17-ethinyl estradiol (17 EE), Alendronate (Alen), or Parathyroid hormone 1-34 (PTH)”. Besides, in the data set on OVX rats [4] (setting [10]), the “bone density from three-dimensional micro-CT images” value is reported as “increase in bone density”. Besides, the trabecular volume fraction entry in the data set on OVX rats [4] (OVX rats, oral 10, 100, or 1000 μg/kg, ex vivo micro-CT) is on record as “in the same ranges as those animals receiving 17-ethinyl estradiol (17 EE), Alendronate (Alen), or Parathyroid hormone 1-34 (PTH)”. In the data set with OVX rats [5] (setting [10]), the “bone strength (tibial indentation test)” value is “dose-responsive increase in bone strength, relative to the OVX animals”. The “Binding Index” value in data set [6] amounted to 100.

`COc1ccc(NC(=O)CCC(=O)Nc2nnc(S(N)(=O)=O)s2)c(O)c1C(N)=O` [Formula 35]: the “lipid metabolism” value in the data set on OVX rats [1] (setting [9]) is given as “limited or no effect”. For the same molecule, the uterine mass entry in the data set on OVX rats [2] is “limited or no effect”. Also, the “new bone area” value in the data set on ICR Swiss mice is given as “increase new bone area”. The “whole bone density and regional bone density” value with OVX rats [3] is given as “increase bone density”. In addition, in the data set on OVX rats [4], the “volume fraction (BV/TV) of trabecular” value was “increase bone density”. Besides, in the data set with OVX rats [5], the “bone strength (indentation test)” value is “increase bone strength”. In data set [6], the “Binding Index” value was 20.

Regarding `NCCCC(O)(P(=O)(O)O)P(=O)(O)O` [alendronate], the “production of CTX-I (bone resorption marker) in serum” value in the data set with OVX rats [8] is given as “descrease the production of CTX-1 to sham levels”.

`C#C[C@]1(O)CC[C@H]2[C@@H]3CCc4cc(O)ccc4[C@H]3CC[C@@]21C` [17-ethinyl estradiol]: in the data set with OVX rats [8], the “production of CTX-I (bone resorption marker) in serum” value was “descrease the production of CTX-1 to sham levels”.

(Values after US8071575B2, “Methods and compounds for the targeted delivery of agents to bone for interaction therewith” (priority 2007, dated 2011).)
